Measured values reported in patent US6855730B2, “3-methylidenyl-2-indolinone modulators of protein kinase” (Sugen, Inc., priority 1998, dated 2005).

Molecular target: EGFR (Homo sapiens, UniProt P00533)
Experiment: Biochemical EGFR assay (ELISA, A431 cell lysate)
Design: A431 cell lysate (Screening Lab, SUGEN, Inc.); host or cells: A431
Details: read-out: bio EGFr IC50
Summary of the method: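 EGFR captured from A431 cell lysate onto anti-EGFR-coated plates, then incubated with test compound for 30 min at room temperature. Tyrosine phosphorylation with ATP/MnCl2 was stopped with EDTA after 5 min and detected by anti-phosphotyrosine ELISA with peroxidase/ABTS read-out.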

Chain of EGFR (P00533 25-1210): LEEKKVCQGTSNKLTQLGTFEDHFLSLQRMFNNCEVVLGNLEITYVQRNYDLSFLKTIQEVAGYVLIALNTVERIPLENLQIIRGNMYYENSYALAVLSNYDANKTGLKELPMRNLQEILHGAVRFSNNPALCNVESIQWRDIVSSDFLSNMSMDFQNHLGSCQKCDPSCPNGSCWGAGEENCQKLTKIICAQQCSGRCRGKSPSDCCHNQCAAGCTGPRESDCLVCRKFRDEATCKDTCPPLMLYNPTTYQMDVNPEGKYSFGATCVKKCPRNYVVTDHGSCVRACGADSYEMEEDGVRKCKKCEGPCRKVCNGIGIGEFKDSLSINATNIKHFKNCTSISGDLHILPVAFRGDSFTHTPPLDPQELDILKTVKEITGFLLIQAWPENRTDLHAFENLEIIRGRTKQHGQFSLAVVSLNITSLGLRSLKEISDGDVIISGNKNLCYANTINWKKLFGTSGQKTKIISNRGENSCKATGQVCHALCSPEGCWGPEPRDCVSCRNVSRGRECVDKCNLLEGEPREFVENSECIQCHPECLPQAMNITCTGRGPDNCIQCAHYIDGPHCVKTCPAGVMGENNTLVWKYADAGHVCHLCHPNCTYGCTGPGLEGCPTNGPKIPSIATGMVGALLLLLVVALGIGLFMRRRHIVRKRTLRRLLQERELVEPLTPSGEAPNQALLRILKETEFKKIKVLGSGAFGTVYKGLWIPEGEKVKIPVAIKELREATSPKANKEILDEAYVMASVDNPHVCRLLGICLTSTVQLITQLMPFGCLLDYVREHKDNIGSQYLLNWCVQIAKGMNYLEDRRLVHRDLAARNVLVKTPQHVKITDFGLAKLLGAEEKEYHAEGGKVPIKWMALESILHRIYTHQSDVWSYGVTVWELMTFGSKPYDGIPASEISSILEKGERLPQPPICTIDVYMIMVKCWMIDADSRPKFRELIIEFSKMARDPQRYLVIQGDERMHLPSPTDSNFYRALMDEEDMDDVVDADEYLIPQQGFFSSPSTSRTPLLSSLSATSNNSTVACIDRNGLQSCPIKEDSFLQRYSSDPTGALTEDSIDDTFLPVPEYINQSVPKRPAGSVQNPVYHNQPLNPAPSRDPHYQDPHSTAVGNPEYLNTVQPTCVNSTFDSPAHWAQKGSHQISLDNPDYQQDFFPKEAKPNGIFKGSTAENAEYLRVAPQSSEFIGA

SMILES | IC50
CCOC(=O)c1c(C)[nH]c(/C=C2\C(=O)Nc3ccc(Br)cc32)c1CCC(=O)O [Compound 114, 5-(5-Bromo-2-oxo-1,2-dihydroindol-3-ylidenemethyl)-4-(2-carboxyethyl)-2-methyl-1H-pyrrole-3-carboxylic acid ethyl ester] | > 100 µM
Cc1cc(CCC(=O)O)c(/C=C2\C(=O)Nc3ccc(Br)cc32)[nH]1 [Compound 116, 3-[2-(5-Bromo-2-oxo-1,2-dihydroindol-3-ylidenemethyl)-5-methyl-1H-pyrrol-3-yl]-propionic acid] | > 100 µM
COc1c(C(C)C)cc(/C=C2/C(=O)Nc3ccccc32)cc1C(C)C [Example 1, 3-(3,5-Diisopropyl-4-methoxybenzylidene)-1,3-dihydroindol-2-one] | > 100 µM
COc1c(C(C)C)cc(/C=C2/C(=O)Nc3ccc(Cl)cc32)cc1C(C)C [Example 2, 5-Chloro-3-(3,5-diisopropyl-4-methoxybenzylidene)-1,3-dihydroindol-2-one] | > 100 µM
O=C1Nc2ccc(N=Cc3cc4ccccc4[nH]3)cc2C1=Cc1cc2ccccc2[nH]1 [Example 171, 3-(1H-indol-2-ylmethylene)-5-[(1H-indol-2-ylmethylene)-amino]-1,3-dihydroindol-2-one] | > 100 µM
NS(=O)(=O)c1ccc2c(c1)/C(=C/c1c[nH]c3ccccc13)C(=O)N2 [Example 172, 3-(1H-Indol-3-ylmethylene)-2-oxo-2,3-dihydro-1H-indole-5-sulfonic acid amide] | > 100 µM
CNS(=O)(=O)c1ccc2c(c1)/C(=C/c1cc3ccccc3[nH]1)C(=O)N2 [Example 173, 3-(1H-Indol-2-ylmethylene)-2-oxo-2,3-dihydro-1H-indole-5-sulfonic acid methylamide] | 22 µM
O=C1Nc2ccc(C(=O)O)cc2/C1=C/c1c[nH]c2ccccc12 [Example 174, 3-(1H-Indol-3-ylmethylene)-2-oxo-2,3-dihydro-1H-indole-5-carboxylic acid] | > 100 µM
O=C1Nc2ccc(C(=O)O)cc2/C1=C/c1ccc2[nH]ccc2c1 [Example 177, 3-(1H-Indol-5-ylmethylene)-2-oxo-2,3-dihydro-1H-indole-5-carboxylic acid] | 6.13 µM
Nc1ccc2c(c1)/C(=C/c1ccc3[nH]ccc3c1)C(=O)N2 [Example 179, 5-Amino-3-(1H-indol-5-ylmethylene)-1,3-dihydro-indol-2-one] | > 100 µM
Cc1c(/C=C2\C(=O)Nc3ccc(N)cc32)[nH]c2ccccc12 [Example 180, 5-Amino-3-(3-methyl-1H-indol-2-ylmethylene)-1,3-dihydroindol-2-one] | > 100 µM
COc1ccc(-c2ccc3c(c2)NC(=O)/C3=C\c2[nH]c3c(c2CCC(=O)O)CCCC3)cc1 [Example 205, 3-{2-[6-(4-Methoxyphenyl)-2-oxo-1,2-dihydro-indol-3-ylidenemethyl]-4,5,6,7-tetrahydro-1H-indol-3-yl}-propionic acid] | 16.2 µM
Cc1c[nH]c(/C=C2\C(=O)Nc3ccccc32)c1CCC(=O)O [Example 215, 3-[4-Methyl-2-(2-oxo-1,2-dihydroindol-3-ylidenemethyl)-1H-pyrrol-3-yl]-propionic acid] | > 100 µM
Cc1c[nH]c(C=C2C(=O)Nc3cc(Cl)ccc32)c1CCC(=O)O [Example 219, 3-[2-(6-Chloro-2-oxo-1,2-dihydroindol-3-ylidenemethyl)-4-methyl-1H-pyrrol-3-yl]-propionic acid] | 98.1 µM

The next lines start with the values.

IC50 | SMILES
> 100 µM | Cc1[nH]c2ccccc2c1/C=C1\C(=O)Nc2ccc(C(=O)O)cc21 [Example 182, 3-(2-Methyl-1H-indol-3-ylmethylene)-2-oxo-2,3-dihydro-1H-indole-5-carboxylic acid]
> 100 µM | Cc1[nH]c2ccccc2c1/C=C1\C(=O)Nc2ccc(N)cc21 [Example 187, 5-Amino-3-(2-methyl-1H-indol-3-ylmethylene)-1,3-dihydroindol-2-one]
> 100 µM | O=C(O)CCc1c(/C=C2\C(=O)Nc3ccc(Cl)cc32)[nH]c2c1CCCC2 [Example 191, 3-[2-(5-Chloro-2-oxo-1,2-dihydroindol-3-ylidenemethyl)-4,5,6,7-tetrahydro-1H-indol-3-yl]-propionic acid]
90.7 µM | Cc1cccc2c1/C(=C/c1[nH]c3c(c1CCC(=O)O)CCCC3)C(=O)N2 [Example 193, 3-[2-(4-Methyl-2-oxo-1,2-dihydroindol-3-ylidenemethyl)-4,5,6,7-tetrahydro-1H-indol-3-yl]-propionic acid]
36.5 µM | O=C(O)CCc1c(/C=C2\C(=O)Nc3cc(Cl)ccc32)[nH]c2c1CCCC2 [Example 195, 3-[2-(6-Chloro-2-oxo-1,2-dihydroindol-3-ylidenemethyl)-4,5,6,7-tetrahydro-1H-indol-3-yl]-propionic acid]
> 100 µM | CN(C)C(=O)CCc1c(/C=C2\C(=O)Nc3ccccc32)[nH]c2c1CCCC2 [Example 197, N,N-Dimethyl-3-[2-(2-oxo-1,2-dihydroindol-3-ylidenemethyl)-4,5,6,7-tetrahydro-1H-indol-3-yl]-propionamide]
> 100 µM | CN(C)CCCc1c(/C=C2\C(=O)Nc3ccccc32)[nH]c2c1CCCC2 [Example 198, 3-[3-(3-Dimethylaminopropyl)-4,5,6,7-tetrahydro-1H-indol-2-ylmethylene]-1,3-dihydroindol-2-one]
> 100 µM | NC(=O)CCc1c(/C=C2\C(=O)Nc3ccccc32)[nH]c2c1CCCC2 [Example 199, 3-[2-(2-Oxo-1,2-dihydroindol-3-ylidenemethyl)-4,5,6,7-tetrahydro-1H-indol-3-yl]-propionamide]
> 100 µM | O=C1Nc2ccccc2/C1=C/c1[nH]c2c(c1CCC(=O)N1CCOCC1)CCCC2 [Example 200, 3-[3-(3-Morpholin-4-yl-3-oxopropyl)-4,5,6,7-tetrahydro-1H-indol-2-ylmethylene]-1,3-dihydroindol-2-one]
> 100 µM | CNC(=O)CCc1c(/C=C2\C(=O)Nc3ccccc32)[nH]c2c1CCCC2 [Example 201, N-Methyl-3-[2-(2-oxo-1,2-dihydroindol-3-ylidenemethyl)-4,5,6,7-tetrahydro-1H-indol-3-yl]-propionamide]
> 100 µM | O=C(CCc1c(/C=C2\C(=O)Nc3ccccc32)[nH]c2c1CCCC2)NCCN1CCOCC1 [Example 202, N-(2-Morpholin-4-ylethyl)-3-[2-(2-oxo-1,2-dihydroindol-3-ylidenemethyl)-4,5,6,7-tetrahydro-1H-indol-3-yl]-propionamide]
> 12.5 µM | O=C(O)CCc1c(/C=C2\C(=O)Nc3ncccc32)[nH]c2c1CCCC2 [Example 203, 3-[2-(2-Oxo-1,2-dihydropyrrolo[2,3-b]pyridin-3-ylidenemethyl)-4,5,6,7-tetrahydro-1H-indol-3-yl]-propionic acid]
7.09 µM | COc1cccc(-c2ccc3c(c2)NC(=O)/C3=C\c2[nH]c3c(c2CCC(=O)O)CCCC3)c1 [Example 204, 3-{2-[6-(3-Methoxyphenyl)-2-oxo-1,2-dihydro-indol-3-ylidenemethyl]-4,5,6,7-tetrahydro-1H-indol-3-yl}-propionic acid]
> 100 µM | CC(C)NS(=O)(=O)c1ccc2c(c1)C(=Cc1[nH]c3c(c1CCC(=O)O)CCCC3)C(=O)N2 [Example 208, 3-[2-(5-Isopropylaminosulfonyl-2-oxo-1,2-dihydroindol-3-ylidenemethyl)-4,5,6,7-tetrahydro-1H-indol-3-yl]-propionic acid]
> 100 µM | O=C(O)CCc1ccccc1/C=C1/C(=O)Nc2ccccc21 [Example 214, 3-[2-(2-Oxo-1,2-dihydroindol-3-ylidenemethyl)-phenyl]-propionic acid]
> 100 µM | Cc1c[nH]c(/C=C2\C(=O)Nc3ccc(Cl)cc32)c1CCC(=O)O [Example 216, 3-[2-(5-Chloro-2-oxo-1,2-dihydroindol-3-ylidenemethyl)-4-methyl-1H-pyrrol-3-yl]-propionic acid]
> 100 µM | COc1ccc2c(c1)NC(=O)/C2=C\c1[nH]cc(C)c1CCC(=O)O [Example 217, 3-[2-(6-Methoxy-2-oxo-1,2-dihydroindol-3-ylidenemethyl)-4-methyl-1H-pyrrol-3-yl]-propionic acid]
> 100 µM | COc1ccc2c(c1)/C(=C/c1[nH]cc(C)c1CCC(=O)O)C(=O)N2 [Example 222, 3-[2-(5-Methoxy-2-oxo-1,2-dihydroindol-3-ylidenemethyl)-4-methyl-1H-pyrrol-3-yl]-propionic acid]
13.3 µM | COc1cccc(-c2ccc3c(c2)NC(=O)/C3=C\c2[nH]cc(C)c2CCC(=O)O)c1 [Example 223, 3-{2-[6-(3-Methoxyphenyl)-2-oxo-1,2-dihydro-indol-3-ylidenemethyl]-4-methyl-1H-pyrrol-3-yl}-propionic acid]
